# Measured values: patent US10800792B2, “Inhibitors of Bruton's tyrosine kinase and method of their use” (JANSSEN PHARMACEUTICA NV, priority 2015, dated 2020)
# Biological target: unphosphorylated-BTK kinase domain (UP-BTK), GST-tagged human BTK (389-659aa) (Homo sapiens (Human), UniProt Q06187)
# Experiment: BTK kinase Lanthascreen binding assay
# Settings: Lanthascreen tracer competition, 60 minutes incubation; pIC50 = negative log of the IC50 in molar
# Procedure, shortened: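 Measures how well compounds compete with a fluorescence-labelled tracer for binding to BTK in its unphosphorylated state. IC50 values were fitted and expressed as pIC50 (negative logarithm of the molar IC50).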
# Chain of unphosphorylated-BTK kinase domain (UP-BTK), GST-tagged human BTK (389-659aa) (Q06187 389-659): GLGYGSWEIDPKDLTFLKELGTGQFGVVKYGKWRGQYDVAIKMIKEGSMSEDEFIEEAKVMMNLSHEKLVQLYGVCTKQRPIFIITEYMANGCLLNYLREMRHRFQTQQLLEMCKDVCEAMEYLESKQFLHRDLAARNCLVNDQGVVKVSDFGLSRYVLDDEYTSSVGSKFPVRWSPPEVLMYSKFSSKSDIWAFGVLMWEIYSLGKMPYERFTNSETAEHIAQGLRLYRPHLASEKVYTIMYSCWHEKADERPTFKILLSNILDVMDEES
row,SMILES,BTK_I_binding pIC50
1,"CC(C)(C)OC(=O)N1CCC[C@@H](NC(=O)c2sc3nccc4c3c2NC(=O)N4c2ccc3c(c2)OC(F)(F)O3)C1 [Example 653, (R)-tert-Butyl 3-(5-(2,2-difluorobenzo[d][1,3]dioxol-5-yl)-4-oxo-4,5-dihydro-3H-1-thia-3,5,8-triazaacenaphthylene-2-carboxamido)piperidine-1-carboxylate]",<5
2,"C=CC(=O)N1CCC[C@@H](NC(=O)c2sc3nccc4c3c2NC(=O)N4c2cc(-c3ccccc3)cnn2)C1 [Example 751, (R)—N-(1-Acryloylpiperidin-3-yl)-4-oxo-5-(5-phenylpyridazin-3-yl)-4,5-dihydro-3H-1-thia-3,5,8-triazaacenaphthylene-2-carboxamide]",6.7
3,"C=CC(=O)N1CCC(C(=O)Nc2sc3nccc4c3c2NC(=O)N4c2ccc(Oc3ccccc3)cc2C)CC1 [Example 820, 1-Acryloyl-N-(5-(2-methyl-4-phenoxyphenyl)-4-oxo-4,5-dihydro-3H-1-thia-3,5,8-triazaacenaphthylen-2-yl)piperidine-4-carboxamide]",5.9
4,"Cc1cc(Oc2ccccc2)ccc1N1C(=O)Nc2c(C(=O)N[C@@H]3CCCN(C(=O)[C@H]4CCN4)C3)sc3nccc1c23 [Example 849, N—((R)-1-((R)-Azetidine-2-carbonyl)piperidin-3-yl)-5-(2-methyl-4-phenoxyphenyl)-4-oxo-4,5-dihydro-3H-1-thia-3,5,8-triazaacenaphthylene-2-carboxamide]",7.6
5,"Cc1cc(Oc2ccccc2)ccc1N1C(=O)Nc2c(C(=O)NC3CCCN(C(=O)CC#N)C3)sc3nccc1c23 (centres unmarked) [Example 882, N-(1-(2-Cyanoacetyl)piperidin-3-yl)-5-(2-methyl-4-phenoxyphenyl)-4-oxo-4,5-dihydro-3H-1-thia-3,5,8-triazaacenaphthylene-2-carboxamide]",7.0
6,"C=CC(=O)N1CCC[C@@H](NC(=O)c2sc3nccc4c3c2NC(=O)N4c2cc(-c3ccccc3)ncn2)C1 [Example 685, (R)—N-(1-Acryloylpiperidin-3-yl)-4-oxo-5-(6-phenylpyrimidin-4-yl)-4,5-dihydro-3H-1-thia-3,5,8-triazaacenaphthylene-2-carboxamide]",8.1

# Same assay, conditions: Lanthascreen tracer competition, 60 minutes incubation; pIC50 = negative log of the IC50 in molar; read-out: BTK_I_binding pIC50 (converted)
row,SMILES,IC50 [nM]
1,Cc1cc(Oc2ccccc2)ncc1N1C(=O)Nc2c(C(=O)N[C@@H]3COC[C@@H]3N)sc3nccc1c23 (racemic) [Example 707],200

# Same assay, conditions: pIC50 = negative log of the IC50 in molar; 60 minutes incubation, 50 nM Tracer 236
row,SMILES,BTK_I_binding pIC50
1,"Cc1cc(Oc2ccccc2)ccc1N1C(=O)Nc2c(C(=O)N[C@@H]3C[C@H](F)CN(C)C3)sc3nccc1c23 [Example 164, N-((3R,5S)-5-Fluoro-1-methylpiperidin-3-yl)-5-(2-methyl-4-phenoxyphenyl)-4-oxo-4,5-dihydro-3H-1-thia-3,5,8-triazaacenaphthylene-2-carboxamide]",6.8
2,"COc1ccccc1Oc1ccc(N2C(=O)Nc3c(C(=O)N[C@@H]4CCCN(C)C4)sc4nccc2c34)c(C)c1 [Example 73, (R)-5-(4-(2-Methoxyphenoxy)-2-methylphenyl)-N-(1-methylpiperidin-3-yl)-4-oxo-4,5-dihydro-3H-1-thia-3,5,8-triazaacenaphthylene-2-carboxamide]",6.8
3,"C=CC(=O)N1CCC[C@@H](NC(=O)c2sc3nccc4c3c2NC(=O)N4c2ccc(C)cc2)C1 [Example 271, (R)—N-(1-Acryloylpiperidin-3-yl)-4-oxo-5-(p-tolyl)-4,5-dihydro-3H-1-thia-3,5,8-triazaacenaphthylene-2-carboxamide]",6.3
4,"Cc1cc(Oc2ccccc2)ccc1N1C(=O)Nc2c(C(=O)N[C@@H]3CCCN(C(=O)/C(C#N)=C\C(C)(C)N(C)C)C3)sc3nccc1c23 [Example 134, (R,Z)—N-(1-(2-Cyano-4-(dimethylamino)-4-methylpent-2-enoyl)piperidin-3-yl)-5-(2-methyl-4-phenoxyphenyl)-4-oxo-4,5-dihydro-3H-1-thia-3,5,8-triazaacenaphthylene-2-carboxamide]",7.1
5,"Cc1cc(Oc2ccccc2)ccc1N1C(=O)Nc2c(C(=O)NC3(CO)CCOCC3)sc3nccc1c23 [Example 192, N-(4-(Hydroxymethyl)tetrahydro-2H-pyran-4-yl)-5-(2-methyl-4-phenoxyphenyl)-4-oxo-4,5-dihydro-3H-1-thia-3,5,8-triazaacenaphthylene-2-carboxamide]",6.8
6,"C=CC(=O)N1CC[C@@H](NC(=O)c2sc3nccc4c3c2NC(=O)N4c2ccc(Oc3c(F)cccc3F)cc2C)C1 [Example 17, (R)—N-(1-Acryloylpyrrolidin-3-yl)-5-(4-(2,6-difluorophenoxy)-2-methylphenyl)-4-oxo-4,5-dihydro-3H-1-thia-3,5,8-triazaacenaphthylene-2-carboxamide]",7.7
7,"COCCC(=O)N1C[C@@H](F)[C@@H](NC(=O)c2sc3nccc4c3c2NC(=O)N4c2ccc(Oc3ccccc3)cc2C)C1 [Example 94, N-((3S,4R)-4-Fluoro-1-(3-methoxypropanoyl)pyrrolidin-3-yl)-5-(2-methyl-4-phenoxyphenyl)-4-oxo-4,5-dihydro-3H-1-thia-3,5,8-triazaacenaphthylene-2-carboxamide]",7.6
8,"O=C(N[C@@H]1CCCNC1)c1sc2nccc3c2c1NC(=O)N3c1ccc(Oc2ccccc2)cc1F [Example 107, (R)-5-(2-Fluoro-4-phenoxyphenyl)-4-oxo-N-(piperidin-3-yl)-4,5-dihydro-3H-1-thia-3,5,8-triazaacenaphthylene-2-carboxamide]",7.5
9,"CCN1CC[C@@H](NC(=O)c2sc3nccc4c3c2NC(=O)N4c2ccc(Oc3ccccc3)cc2C)C1 [Example 141, (R)—N-(1-Ethylpyrrolidin-3-yl)-5-(2-methyl-4-phenoxyphenyl)-4-oxo-4,5-dihydro-3H-1-thia-3,5,8-triazaacenaphthylene-2-carboxamide]",6.8
10,"Cc1cc(Oc2ccccc2)ccc1N1C(=O)Nc2c(C(=O)NC3CNC(=O)C3)sc3nccc1c23 (centres unmarked) [Example 202, 5-(2-Methyl-4-phenoxyphenyl)-4-oxo-N-(5-oxopyrrolidin-3-yl)-4,5-dihydro-3H-1-thia-3,5,8-triazaacenaphthylene-2-carboxamide]",6.7
11,"Cc1cc(Oc2ccccc2)ccc1N1C(=O)Nc2c(C(=O)N[C@@H]3CCCN(C4CC4)C3)sc3nccc1c23 [Example 213, (R)—N-(1-Cyclopropylpiperidin-3-yl)-5-(2-methyl-4-phenoxyphenyl)-4-oxo-4,5-dihydro-3H-1-thia-3,5,8-triazaacenaphthylene-2-carboxamide]",6.5

# Same assay, conditions: pIC50 = negative log of the IC50 in molar; 60 minutes incubation, 50 nM Tracer 236; read-out: BTK_I_binding pIC50 (converted)
row,SMILES,IC50 [nM]
1,"COC[C@@H](N)C(=O)N1CCC[C@@H](NC(=O)c2sc3nccc4c3c2NC(=O)N4c2ccc(Oc3ccccc3)cc2C)C1 [Example 111, N—((R)-1-((R)-2-Amino-3-methoxypropanoyl)piperidin-3-yl)-5-(2-methyl-4-phenoxyphenyl)-4-oxo-4,5-dihydro-3H-1-thia-3,5,8-triazaacenaphthylene-2-carboxamide]",63.1

# Same assay, conditions: unphosphorylated-BTK kinase domain, 50 nM Tracer 236, 60 minutes; pIC50 = negative log of the IC50 in molar
row,SMILES,BTK_I_binding pIC50
1,"Cc1cc(Oc2ccccc2)ccc1N1C(=O)Nc2c(C(=O)N[C@H]3CCCCN(Cc4ccccc4)C3=O)sc3nccc1c23 [Example 309, (S)—N-(1-Benzyl-2-oxoazepan-3-yl)-5-(2-methyl-4-phenoxyphenyl)-4-oxo-4,5-dihydro-3H-1-thia-3,5,8-triazaacenaphthylene-2-carboxamide]",6.0
2,"Cc1ccc(Oc2ccc(N3C(=O)Nc4c(C(=O)N[C@@H]5CCCN(C)C5)sc5nccc3c45)c(C)c2)cc1 [Example 290, (R)-5-(2-Methyl-4-(p-tolyloxy)phenyl)-N-(1-methylpiperidin-3-yl)-4-oxo-4,5-dihydro-3H-1-thia-3,5,8-triazaacenaphthylene-2-carboxamide]",6.2
3,"C=CC(=O)N1CC[C@@H](NC(=O)c2sc3nccc4c3c2NC(=O)N4c2ccccc2)C1 [Example 337, (R)—N-(1-Acryloylpyrrolidin-3-yl)-4-oxo-5-phenyl-4,5-dihydro-3H-1-thia-3,5,8-triazaacenaphthylene-2-carboxamide]",5.4
4,"C=CC(=O)N1CCC[C@@H](NC(=O)c2sc3nccc4c3c2NC(=O)N4c2cccc(-c3ccccc3C)c2)C1 [Example 504, (R)—N-(1-Acryloylpiperidin-3-yl)-5-(2′-methyl-[1,1′-biphenyl]-3-yl)-4-oxo-4,5-dihydro-3H-1-thia-3,5,8-triazaacenaphthylene-2-carboxamide]",8.0
5,"O=C(N[C@@H]1CCCNC1)c1sc2nccc3c2c1NC(=O)N3c1cccc(C(F)(F)F)c1 [Example 347, (R)-4-Oxo-N-(piperidin-3-yl)-5-(3-(trifluoromethyl)phenyl)-4,5-dihydro-3H-1-thia-3,5,8-triazaacenaphthylene-2-carboxamide]",<5
6,"CN(C)CC(=O)N1CCC[C@@H](NC(=O)c2sc3nccc4c3c2NC(=O)N4c2ccc(Oc3ccccc3)cc2)C1 [Example 424, (R)—N-(1-(2-(Dimethylamino)acetyl)piperidin-3-yl)-4-oxo-5-(4-phenoxyphenyl)-4,5-dihydro-3H-1-thia-3,5,8-triazaacenaphthylene-2-carboxamide]",7.2

# Same assay, conditions: unphosphorylated-BTK kinase domain, 60 minutes incubation, 50 nM Tracer 236; pIC50 = negative log of the IC50 in molar
row,SMILES,BTK_I_binding pIC50
1,"C=CC(=O)N1CCC[C@@H](NC(=O)c2sc3nccc4c3c2NC(=O)N4c2ccc(N)cc2)C1 [Example 948, (R)—N-(1-Acryloylpiperidin-3-yl)-5-(4-aminophenyl)-4-oxo-4,5-dihydro-3H-1-thia-3,5,8-triazaacenaphthylene-2-carboxamide]",5.2
